The results in this text go back to US4036957A, “Phenoxy compounds in combinations to suppress gastric bleeding in aspirin therapy” (priority 1975, dated 1977).

The test system of data set [1] is Carrageenan pleural effusion. Description: Evans Blue-Carrageenan Pleural Effusion Test. It counts as in vivo, rats. The settings on record: rat. The source says: The effect of metaxalone (Compound 15) on the anti-inflammatory activity of aspirin in rats was studied using a modification of the Evans Blue-Carrageenan Pleural Effusion Test [Sancilio, L. F., Journal of Pharmacology and Experimental Therapeutics 168, 199-204 (1969)].

Data set [2] has as its system aspirin-induced gastric bleeding. The class given is in vivo, cats. The note with it: cat, 30 min, aspirin 10 mg topical, no glyceryl guaiacolate. As for the experimental part:
Fasted cats weighing […] were anesthetized with phenobarbital sodium (130 mg/kg, i.p.). Glyceryl guaiacolate was administered intravenously for a total of 2 hrs. beginning 60 min. prior to the topical application of the aspirin (10 mg) to the gastric mucosa. Throughout the experiment, artificial gastric juice (USP, pH 1.3) bathed the mucosa by means of the specially designed chamber. The number of bleeding sites occurring at various exposure sites were recorded at 15, 30 and 60 min. Glyceryl guaiacolate was given at doses of 10 and 30 mg/kg/hr via a previously cannulated jugular vein using an infusion pump (Harvard Apparatus Co., Model 1202). […] An important point is that with 30 mg/kg/hr, i.v., of glyercyl guaiacolate there was no bleeding at 30 min. compared with an average of 14 bleeding sites when no glyceryl guaiacolate was adminsitered. A total of 23 cats were used and there was a minimum of 24 aspirin exposure sites for each dose of glyceryl guaiacolate.

For data set [3] the test system is unchanged. Description: Aspirin-induced gastric bleeding in Cr51 labeled Heidenhain pouch dogs, oral. The class given is in vivo. The settings on record: dog; for Mucosal Blood Loss, HCl + Aspirin / Mucosal Blood Loss, HCl: ± S.E.; for Mucosal Blood Loss, HCl: without aspirin; for % Change from Control (mucosal blood loss): P >0.05. As to the method:
Methocarbamol (Compound 3) and Metaxalone (Compound 15) were evaluated for their effectiveness upon oral administration against aspirin-induced gastric bleeding in dogs. Three female chronic Heindehain pouch dogs were used. Red blood cells from each dog were labeled with Cr^51. The dogs were fasted 24 hours prior to any study and three days elapsed between studies. On experimental days each fundic pouch was rinsed with tepid tap water and then filled with 10 ml. of normal saline. After 30 minutes the saline was replaced with 10 ml. of artificial gastric juice (USP, pH 1.3). The dogs were given Compound 3 (200 mg/kg) or Compound 15 (50 and 100 mg/kg) or placebo (starch) orally in gelatin capsules. The 10 ml. of gastric juice was removed from the pouch after 60 minutes and replaced with another 10 ml. of juice containing 100 mg. of aspirin (80 mesh). This was likewise removed after 60 minutes. All samples collected from the pouches were counted for radio-activity using a deep-well counter. From the amount of radio-activity present in the gastric samples, the loss of blood into the pouch was determined. The results are shown in Table 3 and show the effectiveness of orally administering Compounds 3 and 15 in preventing aspirin-induced gastric bleeding.

Data set [4] has the same test system. Description: Prevention of aspirin-induced gastric bleeding in pyloric-ligated rats, i.p. test compound (Examples 1-22). The class given is in vivo, Female Sprague-Dawley rats. The settings on record: rat.

Read-outs that look alike come from different tables or passages of the source.

`CC(=O)Oc1ccccc1C(=O)O` [Aspirin, aspirin]: in data set [1] (aspirin 150 mg/kg oral, ± S.D., P <0.05), the “Pleural Fluid” value came to 4.2 ± 0.28 mL. Besides, the “% Decrease in Pleural Fluid vs Control” value in data set [1] (aspirin 150 mg/kg oral, P <0.05) is 38%. In data set [2], the “average number of bleeding sites” value amounted to 14 bleeding sites.

Regarding `Cc1cc(C)cc(OCC2CNC(=O)O2)c1` (centres unmarked) [Compound 15, 5-(3,5-dimethylphenoxymethyl)-2-oxazolidinone], the “effect on the anti-inflammatory effectiveness of aspirin” value in data set [1] (metaxalone 100 mg/kg 30 min before aspirin 150 mg/kg p.o. and again 2 hrs after Carrageenan) is “no effect”. The results for the “% Protection” value in data set [3] (50 mg/kg p.o.) and in data set [3] (100 mg/kg p.o.) were 77% and 100%, respectively. Besides, the “Mucosal Blood Loss, HCl + Aspirin” value in data set [3] (50 mg/kg p.o.) was found to be 8.6 ± 3.7 µL; in data set [3] (100 mg/kg p.o.), 12.7 ± 3.5 µL. The “Mucosal Blood Loss, HCl” value in data set [3] (50 mg/kg p.o.) was found to be 4.4 ± 2.4 µL; in data set [3] (100 mg/kg p.o.) it was 13.0 ± 1.5 µL. Further, the “% Change from Control (mucosal blood loss)” value in data set [3] (50 mg/kg p.o.) is recorded as “+95%”; in data set [3] (100 mg/kg p.o.), -2%. Moreover, the results for the “preventing aspirin-induced gastric bleeding (in words)” value in data set [3] (oral) and in data set [4] (i.p.) were “effectiveness” and “very effective”, respectively. The change in vivo at 50 mg/kg in data set [4] (ip, 1 h, 50 mg/kg i.p., aspirin 375 mg/kg p.o., read-out: Percent Decrease in Mucosal Bleeding vs Control) is -98%. Further, the change in vivo at 100 mg/kg in data set [4] (ip, 1 h, 100 mg/kg i.p., aspirin 375 mg/kg p.o., read-out: Percent Decrease in Mucosal Bleeding vs Control) is -96%; in data set [4] (ip, 100 mg/kg i.p. (column head states no dose), aspirin 375 mg/kg p.o., read-out: Vol. % Decrease in Gastric Secretion), -41.4%. The same compound showed an ED50 in data set [4] (ip) of 19.6 mg/kg. The “Gastric Bleeding Index” value in data set [4] (12.5 mg/kg i.p.) came out at 27.5 ± 4.2; in data set [4] (25.0 mg/kg i.p.) it was 15.0 ± 5.0; in data set [4] (50.0 mg/kg i.p.), 0.8 ± 0.8; in data set [4] (100.0 mg/kg i.p.) it was 3.3 ± 1.7; in data set [4] (score 0 to 40, 100 mg/kg i.p. (column head states no dose), aspirin 375 mg/kg p.o.) it was 0.8. In addition, the “Total Hemoglobin Loss” value is reported as 19.3 ± 3.4 mg in data set [4] (12.5 mg/kg i.p.), 15.3 ± 6.3 mg in data set [4] (25.0 mg/kg i.p.), 2.5 ± 1.1 mg in data set [4] (50.0 mg/kg i.p.) and 2.5 ± 1.4 mg in data set [4] (100.0 mg/kg i.p.). Further, the “Vol. Gastric Secretion” value in data set [4] (12.5 mg/kg i.p.) is 6.3 ± 0.3 mL; in data set [4] (25.0 mg/kg i.p.), 5.1 ± 0.3 mL; in data set [4] (50.0 mg/kg i.p.), 3.6 ± 0.5 mL; in data set [4] (100.0 mg/kg i.p.) it was 3.8 ± 0.4 mL. Also, the “Percent Decrease in Mucosal Hemorrhage vs Control” value came out at 21% in data set [4] (12.5 mg/kg i.p., P >.05); 57% in data set [4] (25.0 mg/kg i.p., P <.025); 98% in data set [4] (50.0 mg/kg i.p., P <.001); 91% in data set [4] (100.0 mg/kg i.p., P <.001).
